Reference: patent US20120083473A1, “TREATMENT OF CONDITIONS BY TOLL-LIKE RECEPTOR MODULATORS” (priority 2010, published 2012)

What was measured:
[1] = PK analysis after i.v. administration in mice; format: in vivo
[2] = system: murine peritoneal macrophages (PEC); test: Dose-response of M1 and M2 gene expression in PEC (RT PCR); format: cell-based, mice; settings: PECs treated 4 hours or 20 hours with increased concentrations
Experimental: A third group of experiments was performed to investigate the dose-response effects of TMX, its potency as compared to classical inflammatory signals (e.g. LPS) and the activation of selected transcription factors playing an established role in tolerance, as well as in the induction of M1/M2 polarized inflammatory programs. PECs treated for 4 hours or 20 hours with 100 ng/mlof LPS or increased concentrations of TMX or 1V209 were analyzed by RT PCR for the expression of representative M1 (TNFα, IL-12p40) and M2 (IL-10, TGFβ) genes. […] In this experiment, as compared to 1V209, TMX is a lower inducer of M1 genes expression.
Cell Culture and treatments. Peritoneal exudate cells (PEC) were harvested from mice injected with 1 ml of 3% (w/v) thioglycollate medium (Difco, Detroit, Mich.) 4 days prior to isolation. PECs were incubated in RPMI 1640 medium, containing 10% fetal bovine serum, 2 mM glutamine and 100 U/ml of penicillin-streptomycin. The concentration for the different treatments were as follows: LPS (100 ng/ml) (Lipopolysaccharide from Salmonella Abortus Equi S-form, Alexis), CpG (1 μg/ml), Pam3CSK (2 μg/ml), Poly I:C (10 μg/ml), Loxorubine (100 μM), flagellin (100 ng/ml) IL-1β (20 ng/ml), TNF (20 ng/ml), IL-10 (20 ng/ml) (Peprotech), IFNγ (200 U/ml) (Peprotech). To induce TMX tolerance, cells were incubated in the presence of TMX (10 μM or 1 μM) for 20 hrs, washed and maintained in RPMI medium for 2 hrs and then re-challenged with TMX (10 μM) for 4 hrs. To induce TMX-tolerization (T/M) cells were treated with TMX for 20 hrs, washed and then maintained in medium for additional 6 hours, without TMX re-challenge. To induce M1-activation, cells were incubated in medium for 20 hrs, washed, left in medium for 2 hrs and finally stimulated with TMX (10 μM) for 4 hrs. Control cells (M/M) were cultured in medium for the entire period of the experiment. For gene expression analysis, total RNA was extracted from TMX treated and untreated cells with trizol (Invitrogen), according to the manufacturer's instructions. To analyze cytokines and chemokines production supernatants were collected 24 hrs after the second challenge with TMX.
(§1) Real-Time PCR. Total RNA was purified as previously described. Briefly, reverse transcription from 1 μg of RNA was performed using cDNA Archive kit (Applied Biosystem, NJ, USA). Real time PCR was performed using Power Syber Green PCR Master Mix (Applied Biosystem, NJ, USA) and detected by 7900HT Fast Real-Time System (Applied Biosystem, NJ, USA). Data were processed using the SDS2.2.2 software (Applied Biosystem, NJ, USA). Results were normalized to the expression of the housekeeping gene β-actin and then expressed as folds of upregulation, with respect to the control cell population.

[3] = system: human monocytes (Mo); test: M1/M2 gene expression in human monocytes (Real-Time PCR); format: cell-based; settings: excluding Mo from one healthy donor
Experimental: To evaluate the effects of TMX on human cell activation, monocytes were isolated from buffy coats obtained from four different healthy donors. With respect to macrophage tolerance, cells were treated with Compound 2 (10 microM) up to 20 hours and then re-challenged with agonists/ligands of different TLRs (TLR2, TLR4, TLR5, TLR9, TLR7, etc. . . . ), including the TLR7 unconjugated ligand 1V209 (free pharmacophore) at a concentration of 10 microM.
Cell Culture and treatments. Monocytes (Mo) were obtained from buffycoats collected from healthy donors as previously described (Porta C et al, PNAS 2009). Cells were incubated in RPMI 1640 medium, containing 10% fetal bovine serum, 2 mM glutamine and 100 U/ml of penicillin-streptomycin. The concentrations for the different treatments were as follows: LPS (100 ng/ml) (Lipopolysaccharide from Salmonella Abortus Equi S-form, Alexis), CpG (1 microg/ml), Pam3CSK (2 microg/ml), Poly I:C (10 microg/ml), Loxorubine (100 microM), flagellin (100 ng/ml). To induce TMX tolerance, cells were incubated in the presence of TMX (10 microM) for 20 hrs, washed and maintained in RPMI medium for 2 hrs and then re-challenged with TMX (10 microM) for 4 hrs. To induce TMX-tolerization (T/M) cells were treated with TMX for 20 hrs, washed and then maintained in medium for additional 6 hours, without TMX re-challenge. To induce M1-activation cells were incubated in medium for 20 hrs, washed, left in medium for 2 hrs and finally stimulated with TMX (10 microM) for 4 hrs. Control cells (M/M) were cultured in medium for the entire period of the experiment. For gene expression analysis, total RNA was extracted from TMX treated and untreated cells with trizol (Invitrogen), according to the manufacturer's instructions. To analyze cytokines and chemokines production supernatants were collected 24 hrs after the second challenge with TMX.
as §1, with “from 1 microgram of RNA” for “from 1 μg of RNA”, “performed using a cDNA Archive” for “performed using cDNA Archive”, “housekeeping gene 8-actin and then” for “housekeeping gene β-actin and then”

[4] = Dissolution in suitable solvents for testing; format: physicochemical

COCCOc1nc(N)c2nc(O)n(Cc3ccc(C(=O)NCCOCCOCCOCCOCCOCCOCCOCCOCCOCCOCCn4cc(CCC(=O)O)nn4)cc3)c2n1 [Compound 6, 3-(1-(1-(4-((6-amino-8-hydroxy-2-(2-methoxyethoxy)-9H-purin-9-yl)methyl)phenyl)-1-oxo-5,8,11,14,17,20,23,26,29,32-decaoxa-2-azatetratriacontan-34-yl)-1H-1,2,3-triazol-4-yl)propanoic acid]
AUC in comparison with Compound 3 [1]: lower | Cmax in comparison with Compound 3 [1]: lower | clearance in comparison with Compound 3 [1]: higher | half life in comparison with Compound 3 [1]: longer

COCCOc1nc(N)c2[nH]c(=O)n(Cc3ccc(C(=O)O)cc3)c2n1 [Compound 1V209, 4-((6-amino-2-(2-methoxyethoxy)-8-oxo-7H-purin-9(8H)-yl)methyl)benzoic acid, reference compound]
induction of both M1 and M2 gene expression [2]: dose-dependent induction | potency as compared to Compound 2 in terms of induction of both M1 and M2 gene expression [3]: higher potency

CCCCCCCC/C=C\CCCCCCCC(=O)OCC(COP(=O)(O)OCCNC(=O)c1ccc(Cn2c(=O)[nH]c3c(N)nc(OCCOC)nc32)cc1)OC(=O)CCCCCCC/C=C\CCCCCCCC (stereo not shown) [compound (6), 2-(4-((6-amino-2-(2-methoxyethoxy)-8-oxo-7H-purin-9(8H)-yl)methyl)benzamido)ethyl 2,3-bis(oleoyloxy)propyl phosphate]
dissolution in suitable solvents for testing [4]: difficulty in dissolution
